Data from patent US20250339445A1, “Modulators of Orphan Nuclear Receptors for Treating Pancreatitis, Glioblastoma, Sarcopenia and Stroke” (Emory University, priority 2020, published 2025).
Entries after “also recorded” stand apart in the source; their conditions may differ.

Tests used:
RORα-regulated genes = assay: Modulation of RORα-regulated genes in healthy C57BL/6 mice, single injection; type: in vivo
Protocol: Healthy C57BL/6 mice were injected i.p. once with 7.5 mg/kg Compound 1 or saline control. Mice were sacrificed at 1, 2, and 7 day time points post-injection. miR-122 and Gpase 6 mRNA levels were determined by qRT-PCR for each time point. MicroRNA levels were normalized to RNU6; plasma miR-122 was normalized to spiked in C. elegans miR-39; and mRNA levels were normalized to HPRT.
Compound 1 and AntagomiR injections to mice. C57BL/6 male mice, 7-8 weeks old, or Sgp130FC, 9-month-old male mice, were injected i.p. with 7.5 mg/kg Compound 1 dissolved in saline and 3% DMSO. Saline was injected as control. Mice were hydrodynamic tail vain injected with antagomiR-122 or antagomiR-control (negative control) (5 μg/mouse in 1.5 ml saline). Mice were sacrificed according to the legend of the figure describing the experimental results and the livers, white adipose and skeletal muscle tissues were frozen in liquid nitrogen or in OCT embedded frozen blocks, for further RNA and histologic analysis. AntagomiRs were obtained from Sigma Aldrich, see Table 3.

Huh7 cells = assay: LDH release from Huh7 cells; type: cell-based, human; conditions: Huh7, 16 h exposure
[1] = test system: atherogenic diet C57BL/6 mice; assay: Atherogenic (fibrotic) diet mouse model; type: in vivo
Protocol: Male C57BL/6J mice, 7 to 8 weeks old, were housed randomly in standard cages and were fed a HFD, or atherogenic diet (consisting 1% Chol and 0.5% cholic acid, see also Table 6). All mice had free access to water during the experimental period. During the feeding period body weight was monitored every 3 days. In the HFD experiment, after 4 or 6 weeks, the resultant obese mice were treated with antagomiR-122 (5 μg/mouse once a week for 3 weeks), or i.p. injected with Compound 1 (RORα agonist, 7.5 mg/kg twice a week for 3 weeks; or 15 mg/kg 3 times a week for 3 weeks). The obese control (HFD) group was administered only saline with DMSO and antagomiR-control. After 3 weeks of treatment mice were sacrificed and livers were taken for RNA-seq analysis. Livers, white adipose, and skeletal muscle tissues were frozen in liquid nitrogen or in optimum cutting temperature embedded frozen blocks, for further RNA and histologic analysis. In the atherogenic diet experiment mice were treated with 15 mg/kg Compound 1 after 3 weeks with the diet. After 3.5 weeks of treatment, mice were sacrificed, and the livers were frozen in liquid nitrogen or in optimum cutting temperature embedded frozen blocks. Plasma was collected from atherogenic diet-fed mice and saved in −20° C. for ALT and AST analysis using the Reflotron® Analyzer and test-strips (Roche).
Livers and adipose samples were placed in 4% buffered formaldehyde for 24 hours, followed by 80% ethanol and then embedded in paraffin blocks. Liver and adipose tissues were cut into […], deparaffinized with xylene and hydrated through graded ethanol. For the H&E staining, tissue sections were stained with hematoxylin (Emmonya Biotech Ltd.) and eosin (Leica, Surgipath). Liver macrophages were stained using rat anti-mouse F4/80 antigen (Serotec), followed by anti-Rat HRP (Histofine) and developed with a DAB kit (Zymed). Liver sections were stained for Masson Trichrome (Sigma). Liver CD3+ T cells were stained using Rat anti human-CD3-antibody (Bio-Rad), followed by anti-Rat HRP (Histofine) and developed with AEC (Invitrogen). α-SMA positive cells were stained using mouse anti-Human smooth Muscle Actin antibody (Dako), followed by anti-mouse HRP (Dako) and developed with DAB. The percentage area stained positively per high power field was calculated by ImageJ Software in 5-10 random fields.
Experimental design: C57BL/6 mice fed for 3 weeks with atherogenic diet (to induce fibrosis) and injected with 15 mg/kg Compound 1 (or saline+DMSO) 3 times a week for 3.5 week (n=8).
After 3 weeks of treatment mice were sacrificed and livers were taken for RNA-seq analysis. Livers, gonadal white adipose, and skeletal muscle tissues were frozen in liquid nitrogen or in optimum cutting temperature embedded frozen blocks, for further RNA and histologic analysis. In the atherogenic diet experiment mice were treated with 15 mg/kg Compound 1 after 3 weeks with the diet. After 3.5 weeks of treatment, mice were sacrificed, and the livers were frozen in liquid nitrogen or in optimum cutting temperature embedded frozen blocks. Plasma was collected from atherogenic diet-fed mice and stored at −20° C. for ALT and AST analysis using the Reflotron® Analyzer and test-strips (Roche).

miR-122 = assay: Expression and secretion of RORα-regulated microRNA in Huh-7 cells (qRT-PCR); type: cell-based, human
Protocol: Secreted microRNA levels in the medium of Huh-7 cells were analyzed by qRT-PCR and were normalized to spiked C. elegans miR-39. miR-18 and miR-93 served as controls for secreted microRNA and were not affected following Compound 1 addition.
RNA extraction and quantitative Real-Time PCR analysis. Total RNA, including small RNAs, were isolated from […] of plasma or culture media samples using the miRNeasy Mini kit (Qiagen, Valencia, CA, USA) with 2 minor modifications. First, 200 μl of plasma or culture media were lysed with 1 ml of Qiazol solution. Second, a 50 pmol/1 of synthesized single strand Caenorhabditis elegans miRNA (cel-miR-39) was added as the spike-in control to monitor extraction efficiency. The remainder of the RNA extraction was performed according to the manufacturer's instructions. miRNAs were eluted with 30 μl of RNase-free water. Total RNA, including miRNAs, from cells or tissues were isolated using TRIzol reagent (Invitrogen, Carlsbad, CA, USA). cDNA was synthesized using the Quanta Biosciences qScript™ cDNA Synthesis Kit (95047-100) for mRNA analysis, and using the qScript™ microRNA cDNA Synthesis Kit (95107-100) for miRNAs analysis. qRT-PCR of miRNAs and mRNA was performed using the ABI 7900 HT Real-Time PCR System and a SYBR Green PCR Kit: Quanta Cat. #84018 and #84071 respectively. The fold expression and statistical significance were calculated using the 2-ΔΔ Ct method. All experiments were performed in triplicates.

[2] = atherogenic diet, 15 mg/kg 3 times a week for 3.5 weeks
[3] = atherogenic diet, 3 times weekly for 3.5 weeks
[4] = liver, atherogenic diet, 15 mg/kg 3 times a week for 3.5 weeks

Liver vasculature by CD34 staining ([1]; atherogenic diet): no effect
Structure (SMILES): O=C1Nc2cc(C(=O)N3CCC(Cc4ccccc4)CC3)ccc2Nc2ccccc21 [Compound 1]
Gpase6 (G6Pase) mRNA, RORα target gene (RORα-regulated genes; 7.5 mg/kg i.p. once, liver, up to 7 days): significantly up-regulated; also recorded: increase
miR-18 and miR-126 levels (controls) (RORα-regulated genes; 7.5 mg/kg i.p. once, over 7 days): not affected
miR-122 levels in plasma and liver (RORα-regulated genes; 7.5 mg/kg i.p. once, up to 7 days post-injection): increased
Hepatic MIR122 precursors (pri-MIR122 and pre-MIR122) (RORα-regulated genes; single administration): increase
Mature MIR122 levels in WAT, muscle and heart tissues (RORα-regulated genes; single administration): increased significantly
Three MIR122 target genes in heart tissue (RORα-regulated genes; single administration): significantly down-regulated
AldoA, MIR122 target (RORα-regulated genes; single administration, liver): decrease
Toxicity to the cells as measured by LDH release (Huh7 cells): no apparent toxicity
NK cells in the livers ([1]; atherogenic diet): significant reduction in NK cells
Biomarkers of inflammation (Tgfb2 and TgfbR2) and fibrosis (Acta1, Col1A1 and Col3A1), liver mRNA [1, 2]: reducing
Mature miR-122 in tissue (liver) and plasma [1, 2]: increased
ALT and AST plasma levels (liver enzymes) ([1]; atherogenic diet, 15 mg/kg 3 times a week for 3.5 weeks, 15 mg/kg): significantly improved; also recorded: reducing significantly
Liver fibrosis (Masson Trichrome and αSMA staining) [1, 3]: significant reduction in liver fibrosis
Liver inflammation (H&E, CD3 and F4/80 staining) [1, 3]: significantly improved liver inflammation; also recorded: improved liver inflammation significantly
Immune infiltrate by H&E staining [1, 4]: decreased immune infiltrate
Myeloid infiltrate by F4/80 staining [1, 4]: decreased levels of myeloid infiltrate
T-cell density by CD3 staining [1, 4]: decreased T-cell density
Reduction of fibrotic area, Masson Trichrome (M.T) ([1]; liver, versus untreated cohort): 5 fold
Reduction of fibrotic area, α-SMA ([1]; liver, versus untreated cohort): 7 fold
Secreted control microRNA (miR-18, miR-93) in Huh-7 medium (miR-122; 1 μM, 24 hours): not affected
Secreted miR-122 level in Huh-7 medium (miR-122; 1 μM, 24 hours): increases secretion of miR-122
Cellular miR-122 levels (miR-122; Huh7, 16 h exposure): did not change
miR-122 secreted to the medium (miR-122; Huh7, 16 h exposure): significant miR-122 was secreted to the medium; also recorded: significant amount of MIR122 was secreted to the medium
